# Assays:
# Candida albicans [1] = assay: Antifungal activity against Candida albicans assessed as growth inhibition after 48 hr by macrodilution method; type: functional
# Streptococcus pyogenes [2] = assay: Antibacterial activity against Streptococcus pyogenes assessed as growth inhibition after 24 hr by macrodilution method; type: functional
# Pseudomonas aeruginosa [3] = assay: Antibacterial activity against Pseudomonas aeruginosa ATCC 27853 assessed as growth inhibition after 24 hr by disk diffusion assay; type: functional
# Talaromyces marneffei [4] = assay: Antifungal activity against Talaromyces marneffei assessed as growth inhibition after 3 to 4 days by disk diffusion assay; type: functional
# Streptococcus pyogenes [5] = assay: Bactericidal activity against Streptococcus pyogenes after 18 to 24 hr; type: functional
# Aspergillus fumigatus [6] = assay: Antifungal activity against Aspergillus fumigatus assessed as growth inhibition after 48 hr by macrodilution method; type: functional
# Escherichia coli [7] = assay: Antibacterial activity against Escherichia coli ATCC 25922 assessed as growth inhibition after 24 hr by macrodilution method; type: functional; conditions: ATCC 25922, 24 h
# Aspergillus fumigatus [8] = assay: Fungicidal activity against Aspergillus fumigatus after 48 hr; type: functional
# Escherichia coli [9] = assay: Bactericidal activity against Escherichia coli ATCC 25922 after 18 to 24 hr; type: functional
# Klebsiella pneumoniae [10] = assay: Bactericidal activity against Klebsiella pneumoniae clinical isolate after 18 to 24 hr; type: functional
# Aspergillus fumigatus [11] = assay: Antifungal activity against Aspergillus fumigatus assessed as growth inhibition after 3 to 4 days by disk diffusion assay; type: functional
# Candida albicans [12] = assay: Antifungal activity against Candida albicans assessed as growth inhibition after 3 to 4 days by disk diffusion assay; type: functional
# Streptococcus pyogenes [13] = assay: Antibacterial activity against Streptococcus pyogenes assessed as growth inhibition after 24 hr by disk diffusion assay; type: functional
# Escherichia coli [14] = assay: Antibacterial activity against Escherichia coli ATCC 25922 assessed as growth inhibition after 24 hr by disk diffusion assay; type: functional
# Candida albicans [15] = assay: Fungicidal activity against Candida albicans after 48 hr; type: functional
# [16] = system: Trichophyton mentagrophytes; assay: Antifungal activity against Trichophyton mentagrophytes assessed as growth inhibition after 48 hr by macrodilution method; type: functional
# Klebsiella pneumoniae [17] = assay: Antibacterial activity against Klebsiella pneumoniae clinical isolate assessed as growth inhibition after 24 hr by disk diffusion assay; type: functional
# Staphylococcus aureus [18] = assay: Antibacterial activity against methicillin-resistant Staphylococcus aureus assessed as growth inhibition after 24 hr by disk diffusion assay; type: functional
# Talaromyces marneffei [19] = assay: Fungicidal activity against Talaromyces marneffei after 48 hr; type: functional
# Talaromyces marneffei [20] = assay: Antifungal activity against Talaromyces marneffei assessed as growth inhibition after 48 hr by macrodilution method; type: functional
# Klebsiella pneumoniae [21] = assay: Antibacterial activity against Klebsiella pneumoniae clinical isolate assessed as growth inhibition after 24 hr by macrodilution method; type: functional
# Staphylococcus aureus [22] = assay: Antibacterial activity against methicillin-resistant Staphylococcus aureus assessed as growth inhibition after 24 hr by macrodilution method; type: functional
# Pseudomonas aeruginosa [23] = assay: Bactericidal activity against Pseudomonas aeruginosa ATCC 27853 after 18 to 24 hr; type: functional
# Staphylococcus aureus [24] = assay: Bactericidal activity against methicillin-resistant Staphylococcus aureus after 18 to 24 hr; type: functional
# [25] = system: Trichophyton mentagrophytes; assay: Antifungal activity against Trichophyton mentagrophytes assessed as growth inhibition after 3 to 4 days by disk diffusion assay; type: functional
# Pseudomonas aeruginosa [26] = assay: Antibacterial activity against Pseudomonas aeruginosa ATCC 27853 assessed as growth inhibition after 24 hr by macrodilution method; type: functional; conditions: ATCC 27853, 24 h
# [27] = system: Trichophyton mentagrophytes; assay: Fungicidal activity against Trichophyton mentagrophytes after 48 hr; type: functional
# Pseudomonas aeruginosa [28] = assay: microbe, parasite or virus in culture; conditions: ATCC 27853, 24 h, read-out: DIZ
# Description: Antibacterial activity against Pseudomonas aeruginosa ATCC 27853 assessed as growth inhibition at 30 ug after 24 hr by halo zone test
# Escherichia coli [29] = assay: microbe, parasite or virus in culture; conditions: ATCC 25922, 24 h, read-out: DIZ
# Description: Antibacterial activity against Escherichia coli ATCC 25922 assessed as growth inhibition at 30 ug after 24 hr by halo zone test
# Staphylococcus aureus [30] = assay: Antibacterial activity against methicillin-resistant Staphylococcus aureus assessed as growth inhibition at 30 ug after 24 hr by halo zone test; conditions: read-out: DIZ
# Candida albicans [31] = assay: Antifungal activity against Candida albicans assessed as growth inhibition after 3 to 4 days by halo zone test; type: functional
# [32] = system: Trichophyton mentagrophytes; assay: Antifungal activity against Trichophyton mentagrophytes assessed as growth inhibition after 3 to 4 days by halo zone test; type: functional
# Talaromyces marneffei [33] = assay: Antifungal activity against Talaromyces marneffei assessed as growth inhibition after 3 to 4 days by halo zone test; type: functional
# Aspergillus fumigatus [34] = assay: Antifungal activity against Aspergillus fumigatus assessed as growth inhibition after 3 to 4 days by halo zone test; type: functional
compound,measurement,setting,value
Cc1cc(O)c(C(c2c(O)cc(C)oc2=O)c2coc3ccccc3c2=O)c(=O)o1,MIC,Candida albicans [1],12.5 µg/mL
same,MIC,Streptococcus pyogenes [2],25 µg/mL
same,diameter of the inhibition zone (DIZ),Pseudomonas aeruginosa [3],21.2 mm
same,diameter of the inhibition zone (DIZ),Talaromyces marneffei [4],14.2 mm
same,MBC,Streptococcus pyogenes [5],50 µg/mL
same,MIC,Aspergillus fumigatus [6],12.5 µg/mL
same,MIC,Escherichia coli [7],25 µg/mL
same,MFC,Aspergillus fumigatus [8],50 µg/mL
same,MBC,Escherichia coli [9],50 µg/mL
same,MBC,Klebsiella pneumoniae [10],50 µg/mL
same,diameter of the inhibition zone (DIZ),Aspergillus fumigatus [11],21.3 mm
same,diameter of the inhibition zone (DIZ),Candida albicans [12],24.1 mm
same,diameter of the inhibition zone (DIZ),Streptococcus pyogenes [13],19.1 mm
same,diameter of the inhibition zone (DIZ),Escherichia coli [14],18.6 mm
same,MFC,Candida albicans [15],50 µg/mL
same,MIC,[16],25 µg/mL
same,diameter of the inhibition zone (DIZ),Klebsiella pneumoniae [17],17.2 mm
same,diameter of the inhibition zone (DIZ),Staphylococcus aureus [18],18.5 mm
same,MFC,Talaromyces marneffei [19],50 µg/mL
same,MIC,Talaromyces marneffei [20],25 µg/mL
same,MIC,Klebsiella pneumoniae [21],25 µg/mL
same,MIC,Staphylococcus aureus [22],25 µg/mL
same,MBC,Pseudomonas aeruginosa [23],50 µg/mL
same,MBC,Staphylococcus aureus [24],50 µg/mL
same,diameter of the inhibition zone (DIZ),[25],17.8 mm
same,MIC,Pseudomonas aeruginosa [26],12.5 µg/mL
same,MFC,[27],50 µg/mL
O=C(O)c1cn(C2CC2)c2cc(N3CCNCC3)c(F)cc2c1=O [CIPROFLOXACIN],zone of inhibition at 30 µg/disc,Pseudomonas aeruginosa [28],32 mm
same,zone of inhibition at 30 µg/disc,Escherichia coli [29],27 mm
same,zone of inhibition at 30 µg/disc,Staphylococcus aureus [30],22 mm
COC1=CC(=O)C[C@@H](C)[C@]12Oc1c(Cl)c(OC)cc(OC)c1C2=O [GRISEOFULVIN],MIC,Candida albicans [1],6.25 µg/mL
same,diameter of the inhibition zone (DIZ),Candida albicans [31],30 mm
same,MIC,Aspergillus fumigatus [6],12.5 µg/mL
same,MFC,Aspergillus fumigatus [8],12.5 µg/mL
same,diameter of the inhibition zone (DIZ),[32],24 mm
same,MFC,Candida albicans [15],25 µg/mL
same,MIC,[16],6.25 µg/mL
same,diameter of the inhibition zone (DIZ),Talaromyces marneffei [33],20 mm
same,diameter of the inhibition zone (DIZ),Aspergillus fumigatus [34],27 mm
same,MFC,Talaromyces marneffei [19],25 µg/mL
same,MIC,Talaromyces marneffei [20],12.5 µg/mL
same,MFC,[27],25 µg/mL
